# According to US7157620B2, “Enhanced transformation and regeneration of transformed embryogenic pine tissue” (Mead Westvaco Corporation, priority 2000, dated 2007):
# Legend:
# Loblolly pine cell lines = assay: ABA in selection media after biolistic transformation; assay type: cell-based, Pinus taeda
# Excerpt: Loblolly pine cell lines were used which had been grown and maintained as described in Example 1 above, and prepared for biolistic transformation as described in Example 4 above. Following bombardment the support membranes bearing the bombarded embryogenic cells were transferred to DCR2 maintenance media for one week. Following this the support membranes bearing the bombarded embryogenic cells were divided among plates containing gelled DCR selection medium either with or without the addition of 10 mg/l abscisic acid (ABA), and cultured for three weeks. Cells selected on either type of selection medium during this first selection period on selection medium containing ABA were then divided among plates with and without ABA and cultured for a further three weeks. The same occurred in the next transfer, resulting in groups of cells that had been selected entirely in the absence of ABA, entirely in the presence of ABA, or in the presence of ABA for one of the three three-week selection periods.
# [1] = tested on: P. taeda embryogenic cell lines; assay: Effect of ABA in preparation, recovery and selection media on transformants after Agrobacterium inoculation; assay type: cell-based, Pinus taeda
# Excerpt: (§1) Seven loblolly pine cell lines or hybrid cell lines from seven widely diverse genetic backgrounds were used which had been grown, maintained, and transformed using Agrobacterium as described in Example 1 above except that the preparation medium, used for preparation and co-cultivation of the cells, either contained or lacked ABA. Following eradication using wash medium as described in Example 5 above, polyester support membranes bearing approximately 0.1 g of embryogenic tissue were divided onto recovery media either containing or lacking ABA. […] Concentrations of ABA used in all these media were 0, 10, and 30 mg/L.
# (§2) Cells were maintained on the selection media, with transfer of the polyester support membranes to fresh selection media of the same composition, every two weeks for a total of eight weeks of selection. […] The cells were also checked for the presence of sequences by PCR amplification using primers specific for both the uidA and nptII transgenes, techniques well known to those skilled in the art of plant transformation.
# [2] = tested on: P. rigida hybrid embryogenic cell line; assay: as above; assay type: cell-based; settings: line H1
# Excerpt: as §1, §2
structure (smiles),measurement,setting,value
"CC1=CC(=O)CC(C)(C)[C@@]1(O)/C=C/C(C)=C\C(=O)O [ABA, abscisic acid]",transformants from a cell line of progeny of the P. taeda elite line 7–56,Loblolly pine cell lines; 10 mg/L ABA in selection medium,observed only on treatments that had contained ABA in the selection medium
same,number of transformants obtained when ABA was present during the entire selection period,"Loblolly pine cell lines; 10 mg/l ABA in DCR selection medium, nine weeks, all lines tested",equal to or greater than the number obtained for any other treatment
same,effect of ABA in the preparation medium on the observation of transformants,[1]; 10 or 30 mg/L ABA,neutral or beneficial
same,necrotic foci in somatic embryogenic masses versus media without ABA,"[1]; 10 or 30 mg/L ABA during and after co-cultivation, all lines",fewer necrotic foci
same,Average (n = 12) number of transformants observed per selection plate,"[1]; line P1, ABA mg/l preparation/recovery/selection medium 0/0/10",0.3
same,Average (n = 12) number of transformants observed per selection plate,"[1]; line P1, ABA mg/l preparation/recovery/selection medium 0/0/30",0.0
same,Average (n = 12) number of transformants observed per selection plate,"[1]; line P1, ABA mg/l preparation/recovery/selection medium 0/10/10",0.0
same,Average (n = 12) number of transformants observed per selection plate,"[1]; line P1, ABA mg/l preparation/recovery/selection medium 0/10/30",0.1
same,Average (n = 12) number of transformants observed per selection plate,"[1]; line P1, ABA mg/l preparation/recovery/selection medium 0/30/30",0.8
same,Average (n = 12) number of transformants observed per selection plate,"[1]; line P1, ABA mg/l preparation/recovery/selection medium 10/10/10",1.3
same,Average (n = 12) number of transformants observed per selection plate,"[1]; line P1, ABA mg/l preparation/recovery/selection medium 30/10/10",0.3
same,Average (n = 12) number of transformants observed per selection plate,"[1]; line P1, ABA mg/l preparation/recovery/selection medium 30/30/30",0.4
same,Average (n = 12) number of transformants observed per selection plate,"[1]; line P2, ABA mg/l preparation/recovery/selection medium 0/0/10",5.8
same,Average (n = 12) number of transformants observed per selection plate,"[1]; line P2, ABA mg/l preparation/recovery/selection medium 0/0/30",8.8
same,Average (n = 12) number of transformants observed per selection plate,"[1]; line P2, ABA mg/l preparation/recovery/selection medium 0/10/10",1.0
same,Average (n = 12) number of transformants observed per selection plate,"[1]; line P2, ABA mg/l preparation/recovery/selection medium 0/10/30",0.3
same,Average (n = 12) number of transformants observed per selection plate,"[1]; line P2, ABA mg/l preparation/recovery/selection medium 0/30/30",5.2
same,Average (n = 12) number of transformants observed per selection plate,"[1]; line P2, ABA mg/l preparation/recovery/selection medium 10/10/10",10.0
same,Average (n = 12) number of transformants observed per selection plate,"[1]; line P2, ABA mg/l preparation/recovery/selection medium 30/10/10",5.9
same,Average (n = 12) number of transformants observed per selection plate,"[1]; line P2, ABA mg/l preparation/recovery/selection medium 30/30/30",5.3
same,Average (n = 12) number of transformants observed per selection plate,"[1]; line P3, ABA mg/l preparation/recovery/selection medium 0/0/10",21.7
same,Average (n = 12) number of transformants observed per selection plate,"[1]; line P3, ABA mg/l preparation/recovery/selection medium 0/0/30",22.3
same,Average (n = 12) number of transformants observed per selection plate,"[1]; line P3, ABA mg/l preparation/recovery/selection medium 0/10/10",23.3
same,Average (n = 12) number of transformants observed per selection plate,"[1]; line P3, ABA mg/l preparation/recovery/selection medium 0/10/30",26.0
same,Average (n = 12) number of transformants observed per selection plate,"[1]; line P3, ABA mg/l preparation/recovery/selection medium 0/30/30",18.6
same,Average (n = 12) number of transformants observed per selection plate,"[1]; line P3, ABA mg/l preparation/recovery/selection medium 10/10/10",22.6
same,Average (n = 12) number of transformants observed per selection plate,"[1]; line P3, ABA mg/l preparation/recovery/selection medium 30/10/10",21.6
same,Average (n = 12) number of transformants observed per selection plate,"[1]; line P3, ABA mg/l preparation/recovery/selection medium 30/30/30",21.1
same,Average (n = 12) number of transformants observed per selection plate,"[1]; line P4, ABA mg/l preparation/recovery/selection medium 0/0/10",27.5
same,Average (n = 12) number of transformants observed per selection plate,"[1]; line P4, ABA mg/l preparation/recovery/selection medium 0/0/30",34.9
same,Average (n = 12) number of transformants observed per selection plate,"[1]; line P4, ABA mg/l preparation/recovery/selection medium 0/10/10",28.8
same,Average (n = 12) number of transformants observed per selection plate,"[1]; line P4, ABA mg/l preparation/recovery/selection medium 0/10/30",30.9
same,Average (n = 12) number of transformants observed per selection plate,"[1]; line P4, ABA mg/l preparation/recovery/selection medium 0/30/30",28.6
same,Average (n = 12) number of transformants observed per selection plate,"[1]; line P4, ABA mg/l preparation/recovery/selection medium 10/10/10",27.8
same,Average (n = 12) number of transformants observed per selection plate,"[1]; line P4, ABA mg/l preparation/recovery/selection medium 30/10/10",22.7
same,Average (n = 12) number of transformants observed per selection plate,"[1]; line P4, ABA mg/l preparation/recovery/selection medium 30/30/30",27.3
same,Average (n = 12) number of transformants observed per selection plate,"[1]; line P5, ABA mg/l preparation/recovery/selection medium 0/0/10",18.1
same,Average (n = 12) number of transformants observed per selection plate,"[1]; line P5, ABA mg/l preparation/recovery/selection medium 0/0/30",5.5
same,Average (n = 12) number of transformants observed per selection plate,"[1]; line P5, ABA mg/l preparation/recovery/selection medium 0/10/10",2.4
same,Average (n = 12) number of transformants observed per selection plate,"[1]; line P5, ABA mg/l preparation/recovery/selection medium 0/10/30",7.2
same,Average (n = 12) number of transformants observed per selection plate,"[1]; line P5, ABA mg/l preparation/recovery/selection medium 0/30/30",3.3
same,Average (n = 12) number of transformants observed per selection plate,"[1]; line P5, ABA mg/l preparation/recovery/selection medium 10/10/10",10.3
same,Average (n = 12) number of transformants observed per selection plate,"[1]; line P5, ABA mg/l preparation/recovery/selection medium 30/10/10",11.3
same,Average (n = 12) number of transformants observed per selection plate,"[1]; line P5, ABA mg/l preparation/recovery/selection medium 30/30/30",14.3
same,Average (n = 12) number of transformants observed per selection plate,"[1]; line P6, ABA mg/l preparation/recovery/selection medium 0/0/10",3.9
same,Average (n = 12) number of transformants observed per selection plate,"[1]; line P6, ABA mg/l preparation/recovery/selection medium 0/0/30",3.3
same,Average (n = 12) number of transformants observed per selection plate,"[1]; line P6, ABA mg/l preparation/recovery/selection medium 0/10/10",3.2
same,Average (n = 12) number of transformants observed per selection plate,"[1]; line P6, ABA mg/l preparation/recovery/selection medium 0/10/30",3.2
same,Average (n = 12) number of transformants observed per selection plate,"[1]; line P6, ABA mg/l preparation/recovery/selection medium 0/30/30",2.3
same,Average (n = 12) number of transformants observed per selection plate,"[1]; line P6, ABA mg/l preparation/recovery/selection medium 10/10/10",4.5
same,Average (n = 12) number of transformants observed per selection plate,"[1]; line P6, ABA mg/l preparation/recovery/selection medium 30/10/10",3.1
same,Average (n = 12) number of transformants observed per selection plate,"[1]; line P6, ABA mg/l preparation/recovery/selection medium 30/30/30",2.3
same,Average (n = 12) number of transformants observed per selection plate,[2]; ABA mg/l preparation/recovery/selection medium 0/0/10,27.0
same,Average (n = 12) number of transformants observed per selection plate,[2]; ABA mg/l preparation/recovery/selection medium 0/0/30,21.1
same,Average (n = 12) number of transformants observed per selection plate,[2]; ABA mg/l preparation/recovery/selection medium 0/10/10,19.0
same,Average (n = 12) number of transformants observed per selection plate,[2]; ABA mg/l preparation/recovery/selection medium 0/10/30,21.6
same,Average (n = 12) number of transformants observed per selection plate,[2]; ABA mg/l preparation/recovery/selection medium 0/30/30,15.1
same,Average (n = 12) number of transformants observed per selection plate,[2]; ABA mg/l preparation/recovery/selection medium 10/10/10,21.9
same,Average (n = 12) number of transformants observed per selection plate,[2]; ABA mg/l preparation/recovery/selection medium 30/10/10,22.9
same,Average (n = 12) number of transformants observed per selection plate,[2]; ABA mg/l preparation/recovery/selection medium 30/30/30,21.8
